The test system of assay [1] is pSTAT3 (pY705-STAT3) in PBMC. Kind of assay: MSD-pSTAT-PBMC Assay (pSTAT3). The format is cell-based. As to conditions: compound 3 hrs, then 10 ng/mL IL-6 for 10 min. An excerpt:
(§1) Cryopreserved Peripheral Blood Mononuclear Cells (PBMC) are from AllCells. Recombinant Human […] and IL-6 are from Peprotech. Mouse monoclonal anti-STAT3 antibody, rabbit monoclonal anti-pY705-STAT3 antibody, rabbit monoclonal Anti-pY641-STAT6 antibody, and lysis buffer are from Cell Signaling Technology (CST). Mouse monoclonal anti-STAT6 antibody is from BioLegend. Assay plates, blocker, and anti-rabbit secondary antibody are from Meso Scale Discovery (MSD).
(§2) Cryopreserved PBMCs were thawed out and allowed to recover overnight in IMDM+10% heat-inactivated FBS prior to plating 50,000 (STAT3) or 25,000 (STAT6) cells per well in 96-well U-bottom tissue culture plates. Cells were treated with compound for 3 hrs, then stimulated with 10 ng/mL IL-6 (STAT3) or 1 ng/mL IL-4 (STAT6) for 10 min. Cells were then spun down and washed with ice-cold PBS prior to lysing the cell pellet with 1× lysis buffer (CST) with 1× HALT protease and phosphatase inhibitor cocktail (Thermo). Lysates were transferred to and incubated overnight at 4° C. with shaking in QuickPlex 96-well high bind assay plates (MSD) pre-coated overnight with 30 μL per well of 0.6 μg/mL mouse monoclonal anti-STAT3 antibody (STAT3) or 2 μg/mL mouse monoclonal anti-STAT6 antibody (STAT6) in 1×PBS, and pre-blocked for 1 hour with 3% Blocker-A (MSD). Captured protein in the assay plates were then washed and probed with 25 μL per well of 0.25 μg/ml rabbit monoclonal anti-pY705-STAT3 antibody (STAT3) or 0.18 μg/ml rabbit monoclonal Anti-pY641-STAT6 antibody (STAT6) in 1% Blocker-A for 1 hour at room temperature with shaking, then washed and probed with 25 ul per well of 1 ug/ml Sulfo-TAG Labeled Goat Anti-Rabbit Antibody (MSD) in 1% Blocker-A for 1 hour at room temperature with shaking. Assay plates were then washed and 150 μL of 1× Read Buffer-T (MSD) was added to each well prior to reading on an SQ120 MSD Plate Reader. Assay signal from each sample was subtracted by the signal from unstimulated control wells and normalized to DMSO control wells, IC50 values were calculated using Graph Pad Prism Dose-Response Nonlinear Regression with variable slope. For both pSTAT3 and pSTAT6 A=≤100 nM; B=>100-1000 nM; C=>1000-3000 nM; and D=>3 μM.

Assay [2] has as its system pSTAT6 (pY641-STAT6) in PBMC. Kind of assay: MSD-pSTAT-PBMC Assay (pSTAT6). The format is cell-based. The note with it: compound 3 hrs, then 1 ng/mL IL-4 for 10 min.
Description: as §1, §2

The target in assay [3] is T1, Recombinant STAT3 protein (STAT3(G127-I722)) (Homo sapiens, UniProt P40763).
T1 construct: Recombinant STAT3 protein (STAT3(G127-I722))
Kind of assay: STAT3 Fluorescence Polarization (FP) Assay. The note with it: 25 nM STAT3(G127-I722), 2 nM 5-FAM-GpYLPQTV-NH2 probe, pH 7.4, 45-minute incubation at room temperature. The assay is classed as binding. The protocol: An FP assay was developed to determine IC50 values for test substances. Recombinant STAT3 protein (STAT3(G127-I722)) at 25 nM was combined with a fluorescently labeled, phosphotyrosine peptide probe (5-FAM-GpYLPQTV-NH2) at 2 nM in FP buffer (10 mM HEPES pH 7.4, 50 mM NaCl. 1 mM EDTA, 0.05% Tween 20, 2 mM DTT). 50 μL of STAT3-probe mixture was added to serial diluted compounds in black, 96-well plates (Greiner BioOne 655076) to a final concentration of 1% DMSO. Reaction components were mixed, and FP was measured after 45-minute incubation at room temperature using a Tecan Spark multimode plate reader. FP signal (mP) was plotted against the log concentration of the test substances and IC50 values were calculated by nonlinear regression analysis using GraphPad Prism software. For STAT3 FP assay, A=≤100 nM; B=>100-1000 nM; C=>1-10 μM; and D=>10 μM.
For orientation: Fluorescence polarisation rises when a labelled molecule tumbles more slowly, as on binding a larger partner.

Assay [4] addresses T2, Recombinant STAT6 protein (STAT6(W123-T658)) (Homo sapiens, UniProt P42226).
T2 construct: Recombinant STAT6 protein (STAT6(W123-T658))
T2 sequence (P42226 123-658): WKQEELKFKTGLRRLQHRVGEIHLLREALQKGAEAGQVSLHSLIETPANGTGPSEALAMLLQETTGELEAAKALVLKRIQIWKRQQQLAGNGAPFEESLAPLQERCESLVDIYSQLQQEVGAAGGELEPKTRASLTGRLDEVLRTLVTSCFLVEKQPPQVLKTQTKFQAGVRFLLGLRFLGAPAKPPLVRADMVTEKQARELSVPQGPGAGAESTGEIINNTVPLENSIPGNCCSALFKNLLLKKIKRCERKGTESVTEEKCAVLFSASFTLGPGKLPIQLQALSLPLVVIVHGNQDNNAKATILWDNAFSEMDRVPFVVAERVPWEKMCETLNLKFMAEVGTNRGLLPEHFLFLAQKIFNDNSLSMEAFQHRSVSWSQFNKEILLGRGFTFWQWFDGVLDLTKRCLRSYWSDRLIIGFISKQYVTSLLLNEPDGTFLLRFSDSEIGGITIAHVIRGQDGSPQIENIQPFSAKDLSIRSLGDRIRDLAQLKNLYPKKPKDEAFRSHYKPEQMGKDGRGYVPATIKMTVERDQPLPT
Kind of assay: STAT6 Fluorescence Polarization (FP) Assay. The format is binding. As to conditions: 250 nM STAT6(W123-T658), 2 nM 5-FAM-Ap[…]-NH2 probe, pH 7.4, 45-minute incubation at room temperature. The procedure:
An FP assay was developed to determine IC50 values for test substances. Recombinant STAT6 protein (STAT6(W123-T658)) at 250 nM was combined with a fluorescently labeled, phosphotyrosine peptide probe (5-FAM-Ap[…]-NH2) at 2 nM in FP buffer (10 mM HEPES pH 7.4, 50 mM NaCl, 1 mM EDTA, 0.05% Tween 20, 2 mM DTT). 50 μL of STAT6-probe mixture was added to serial diluted compounds in black, 96-well plates (Greiner BioOne 655076) to a final concentration of 1% DMSO. Reaction components were mixed, and FP w as measured after 45-minute incubation at room temperature using a Tecan Spark multimode plate reader. FP signal (mP) was plotted against the log concentration of the test substances and IC50 values were calculated by nonlinear regression analysis using GraphPad Prism software. For STAT6 FP assay. A=≤300 nM; B=>300-3000 nM; C=>3-30 μM; and D=>30 μM.

The structures appear in SMILES notation.

T1 sequence (P40763 127-722): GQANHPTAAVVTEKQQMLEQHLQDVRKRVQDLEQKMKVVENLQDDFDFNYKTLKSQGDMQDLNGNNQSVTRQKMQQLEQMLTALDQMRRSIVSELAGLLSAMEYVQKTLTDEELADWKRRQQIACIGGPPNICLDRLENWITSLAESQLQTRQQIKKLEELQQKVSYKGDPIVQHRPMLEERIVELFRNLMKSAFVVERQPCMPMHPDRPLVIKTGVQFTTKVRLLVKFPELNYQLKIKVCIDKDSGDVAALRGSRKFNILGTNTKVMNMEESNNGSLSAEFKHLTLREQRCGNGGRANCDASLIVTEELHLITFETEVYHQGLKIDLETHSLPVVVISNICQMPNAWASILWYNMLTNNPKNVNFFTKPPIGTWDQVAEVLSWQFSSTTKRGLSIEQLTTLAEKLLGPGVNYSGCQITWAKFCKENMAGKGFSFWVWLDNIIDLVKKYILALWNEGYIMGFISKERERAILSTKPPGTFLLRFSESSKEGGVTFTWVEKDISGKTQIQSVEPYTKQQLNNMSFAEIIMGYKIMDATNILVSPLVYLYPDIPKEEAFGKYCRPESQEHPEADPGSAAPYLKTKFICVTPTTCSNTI

For `CCCC(=O)SCCOP(=O)(OCCSC(=O)CCC)C(F)(F)c1ccc2sc(C(=O)NC3CC4CC4CC4CCC(C(=O)N5CC(NC(=O)CCCCCC#Cc6cccc7c6CN(C6CCC(=O)NC6=O)C7=O)(c6ccccn6)C5)N4C3=O)cc2c1` [Compound 2, S,S′-(((((2-(((3S,6S,7aS,8aR,9aR)-3-(3-(8-(2-(2,6-dioxopiperidin-3-yl)-1-oxoisoindolin-4-yl)oct-7-ynamido)-3-(pyridin-2-yl)azetidine-1-carbonyl)-5-oxodecahydro-1H-cyclopropa[d]pyrrolo[1,2-a]azocin-6-yl)carbamoyl)benzo[b]thiophen-5-yl)difluoromethyl)phosphoryl)bis(oxy))bis(ethane-2,1-diyl)) dibutanethioate], the figures for the IC50 in assay [1] and in assay [2] were below 0.1 µM and above 3 µM, respectively.
On to `O=C1CCC(c2ccc(OCC(=O)N3CCN(c4ccncc4C4CN(C(=O)[C@@H]5CC[C@@H]6C[C@H]7C[C@H]7C[C@H](NC(=O)c7cc8cc(C(F)(F)P(=O)(O)O)ccc8s7)C(=O)N65)C4)CC3)cc2)C(=O)N1` (stereo partly drawn) [Compound 21, ((2-(((3S,6S,7aS,8aR,9aR)-3-(3-(4-(4-(2-(4-(2,6-dioxopiperidin-3-yl)phenoxy)acetyl)piperazin-1-yl)pyridin-3-yl)azetidine-1-carbonyl)-5-oxodecahydro-1H-cyclopropa[d]pyrrolo[1,2-a]azocin-6-yl)carbamoyl)benzo[b]thiophen-5-yl)difluoromethyl)phosphonic acid], for which the IC50 was below 0.1 µM in assay [3], above 3 µM in assay [1] and 3 to 30 µM in assay [4].
`CCCC(=O)SCCOP(=O)(OCCSC(=O)CCC)C(F)(F)c1ccc2sc(C(=O)NC3CC4CC4CC4CCC(C(=O)N5CC(c6cnccc6N(C)CCOc6ccc(C7CCC(=O)NC7=O)cc6)C5)N4C3=O)cc2c1` [Compound 12, S,S′-(((((2-(((3S,6S,7aS,8aR,9aR)-3-(3-(4-((2-(4-(2,6-dioxopiperidin-3-yl)phenoxy)ethyl)(methyl)amino)pyridin-3-yl)azetidine-1-carbonyl)-5-oxodecahydro-1H-cyclopropa[d]pyrrolo[1,2-a]azocin-6-yl)carbamoyl)benzo[b]thiophen-5-yl)difluoromethyl)phosphoryl)bis(oxy))bis(ethane-2,1-diyl)) dibutanethioate] registered an IC50 in assay [1] below 0.1 µM.
Regarding `N#CC1CN(C(=O)C2CCC3CC4CC4CC(NC(=O)c4cc5cc(C(F)(F)P(=O)(O)O)ccc5s4)C(=O)N32)CC1c1cccc(OCCCCCC#Cc2cccc3c2CN(C2CCC(=O)NC2=O)C3=O)c1` [Compound 7, ((2-(((3S,6S,7aS,8aR,9aR)-3-((rel-3S,4R)-3-cyano-4-(3-((7-(2-(2,6-dioxopiperidin-3-yl)-1-oxoisoindolin-4-yl)hept-6-yn-1-yl)oxy)phenyl)pyrrolidine-1-carbonyl)-5-oxodecahydro-1H-cyclopropa[d]pyrrolo[1,2-a]azocin-6-yl)carbamoyl)benzo[b]thiophen-5-yl)difluoromethyl)phosphonic acid], the IC50 was 0.1 to 1 µM in assay [3], 0.3 to 3 µM in assay [4] and above 3 µM in assay [2].
`CCCC(=O)SCCOP(=O)(OCCSC(=O)CCC)C(F)(F)c1ccc2sc(C(=O)N[C@H]3C[C@@H]4C[C@@H]4C[C@H]4CCC(C(=O)N5CC(c6cnccc6N6CCN(C(=O)COc7ccc(C8CCC(=O)NC8=O)cc7)CC6)C5)N4C3=O)cc2c1` (stereo partly drawn) [Compound 22, S,S′-(((((2-(((3S,6S,7aS,8aR,9aR)-3-(3-(4-(4-(2-(4-(2,6-dioxopiperidin-3-yl)phenoxy)acetyl)piperazin-1-yl)pyridin-3-yl)azetidine-1-carbonyl)-5-oxodecahydro-1H-cyclopropa[d]pyrrolo[1,2-a]azocin-6-yl)carbamoyl)benzo[b]thiophen-5-yl)difluoromethyl)phosphoryl)bis(oxy))bis(ethane-2,1-diyl)) dibutanethioate] yielded a 50% inhibitory concentration (IC50) in assay [1] below 0.1 µM.
For `CN(CCOc1ccc(C2CCC(=O)NC2=O)cc1)c1ccncc1C1CN(C(=O)[C@@H]2CC[C@@H]3C[C@H]4C[C@H]4C[C@H](NC(=O)c4cc5cc(C(F)(F)P(=O)(O)O)ccc5s4)C(=O)N32)C1` (stereo partly drawn) [Compound 11, ((2-(((3S,6S,7aS,8aR,9aR)-3-(3-(4-((2-(4-(2,6-dioxopiperidin-3-yl)phenoxy)ethyl)(methyl)amino)pyridin-3-yl)azetidine-1-carbonyl)-5-oxodecahydro-1H-cyclopropa[d]pyrrolo[1,2-a]azocin-6-yl)carbamoyl)benzo[b]thiophen-5-yl)difluoromethyl)phosphonic acid], the IC50 was below 0.1 µM in assay [3], above 3 µM in assay [1] and 3 to 30 µM in assay [4].
In the same order, the values of `O=C1CCC(N2Cc3c(C#CCCCCCC(=O)NC4(c5ccccn5)CN(C(=O)[C@@H]5CC[C@@H]6C[C@H]7C[C@H]7C[C@H](NC(=O)c7cc8cc(C(F)(F)P(=O)(O)O)ccc8s7)C(=O)N65)C4)cccc3C2=O)C(=O)N1` (stereo partly drawn) [Compound 1, ((2-(((3S,6S,7aS,8aR,9aR)-3-(3-(8-(2-(2,6-dioxopiperidin-3-yl)-1-oxoisoindolin-4-yl)oct-7-ynamido)-3-(pyridin-2-yl)azetidine-1-carbonyl)-5-oxodecahydro-1H-cyclopropa[d]pyrrolo[1,2-a]azocin-6-yl)carbamoyl)benzo[b]thiophen-5-yl)difluoromethyl)phosphonic acid] are below 0.1 µM, above 3 µM and 3 to 30 µM.

What is called IC50 is the point on the concentration scale where inhibition reaches its midpoint.
